IC50 data for 24 compounds are collected here from patent US10131642B1, “Aldosterone synthase inhibitors” (Boehringer Ingelheim International GmbH, priority 2015, dated 2018).

Experiment [1] deals with cortisol synthase (CYP11B1) (Macaca fascicularis, UniProt A0A2K5ULY1). In words: Inhibition of cortisol synthesis (cynomolgus adrenal mitochondria, cortisol by mass spectrometry). Type of experiment: biochemical, cynomolgus monkey. The procedure:
The aldosterone synthase and cortisol synthase inhibition assays employ cynomolgus adrenal gland mitochondria as the source of aldosterone synthase (CYP11B2) and cortisol synthase (CYP11B1). Mitochondria are prepared from frozen cynomolgus monkey adrenal glands according to Method A described in by J. D. McGarry et al. (Biochem. J., 1983, 214, 21-28), with a final resuspension in the AT buffer described in R. Yamaguchi et al. (Cell Death and Differentiation, 2007, 14, 616-624), frozen as aliquots in liquid nitrogen and stored at −80° C. until use. Activity of CYP11B2 and CYP11B1 in these preparations is defined as the amount of enzyme that generates 1 pmol of product in one hour under the conditions described. Dose dependent inhibition is quantified by the inclusion of compound at various concentrations. Maximum activity (100%) is defined by reactions containing NADPH, but without compound. Activities at each concentration are expressed as a percentage of the maximum activity (y-axis) and plotted against concentration of compound (x-axis) and the concentration corresponding to 50% activity (IC50) determined using the XLFit curve-fitting program using a 4-parameter logistic model. Assays are performed as for aldosterone synthase except for the use of 150 units of CYP11B1, 11-deoxycortisol as substrate and cortisol measured as product.

For experiment [2], the target named is T1, aldosterone synthase (CYP11B2) (Macaca fascicularis, UniProt A0A2K5UPL9).
T1 construct: cynomolgus adrenal gland mitochondria as the source of aldosterone synthase (CYP11B2); from tissue; host or cells: cynomolgus monkey adrenal gland mitochondria
T1 sequence (A0A2K5UPL9 1-503): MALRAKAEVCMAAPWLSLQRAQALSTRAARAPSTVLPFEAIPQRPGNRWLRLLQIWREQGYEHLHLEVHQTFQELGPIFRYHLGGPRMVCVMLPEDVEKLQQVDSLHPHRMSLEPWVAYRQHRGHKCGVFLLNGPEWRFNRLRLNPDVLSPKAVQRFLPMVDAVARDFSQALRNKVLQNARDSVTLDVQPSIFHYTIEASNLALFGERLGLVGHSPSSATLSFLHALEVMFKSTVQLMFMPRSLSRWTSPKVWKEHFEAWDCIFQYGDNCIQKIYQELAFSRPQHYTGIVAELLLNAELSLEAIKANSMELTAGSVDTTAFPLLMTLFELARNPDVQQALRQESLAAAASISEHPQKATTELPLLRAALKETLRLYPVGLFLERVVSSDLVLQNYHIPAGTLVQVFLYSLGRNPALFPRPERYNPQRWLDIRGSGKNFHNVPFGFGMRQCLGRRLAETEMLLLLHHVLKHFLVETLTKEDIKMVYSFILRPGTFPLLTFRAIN
In words: Inhibition of aldosterone synthase (cynomolgus adrenal mitochondria, aldosterone by mass spectrometry). Type of experiment: biochemical, cynomolgus monkey. To be noted: cynomolgus adrenal gland mitochondria, 2 μM corticosterone substrate, 90 minutes at 37° C. The procedure: The aldosterone synthase and cortisol synthase inhibition assays employ cynomolgus adrenal gland mitochondria as the source of aldosterone synthase (CYP11B2) and cortisol synthase (CYP11B1). Mitochondria are prepared from frozen cynomolgus monkey adrenal glands according to Method A described in by J. D. McGarry et al. (Biochem. J., 1983, 214, 21-28), with a final resuspension in the AT buffer described in R. Yamaguchi et al. (Cell Death and Differentiation, 2007, 14, 616-624), frozen as aliquots in liquid nitrogen and stored at −80° C. until use. Activity of CYP11B2 and CYP11B1 in these preparations is defined as the amount of enzyme that generates 1 pmol of product in one hour under the conditions described.
Assays are performed in 96-well format in a final volume of 60 µL/well, containing 100 mM potassium phosphate, pH 7.4, 1% (v/v) DMSO, and additionally, 2 μM of corticosterone and 50 units of CYP11B2 activity. Reactions are started by the addition of NADPH to 1 mM and allowed to proceed for 90 minutes at 37° C. Reactions are terminated by the addition of 60 μL of MeCN containing an internal standard for mass spectrometry. One hundred microliters are then transferred to a glass filter plate and centrifuged at 570×g for 5 minutes and the filtrate is collected. Reaction product aldosterone is quantified by mass spectrometry. To determine the assay blank value (0% activity), NADPH is omitted from some reactions.
Dose dependent inhibition is quantified by the inclusion of compound at various concentrations. Maximum activity (100%) is defined by reactions containing NADPH, but without compound. Activities at each concentration are expressed as a percentage of the maximum activity (y-axis) and plotted against concentration of compound (x-axis) and the concentration corresponding to 50% activity (IC50) determined using the XLFit curve-fitting program using a 4-parameter logistic model.

The mark [3] stands for this setting: cynomolgus adrenal gland mitochondria, 11-deoxycortisol as substrate, cortisol measured as product; read-out: CYP11B1 Inhibition IC50.

pIC50: −log10 of the molar value. Counter-ions that a name gives are not always drawn. Like-named read-outs stand apart in the source and are kept apart here.

The term pIC50 denotes the IC50 on a negative log10 scale, so that one unit is a factor of ten.

Consider `CC(=O)N1CCC(Cc2onc3c2C(=O)CC(C(C)C)C3)CC1` (single isomer, unassigned) [Cpd 15A, 3-(1-Acetyl-piperidin-4-ylmethyl)-6-isopropyl-6,7-dihydro-5H-benzo[c]isoxazol-4-one], for which the pIC50 is 5.55 in experiment [1] (setting [3]) and 7.66 in experiment [2].

`CC(=O)N1CCC(Cc2onc3c2C(=O)CC(C(C)C)C3)CC1` (single isomer, unassigned) [Cpd 15B, 3-(1-Acetyl-piperidin-4-ylmethyl)-6-isopropyl-6,7-dihydro-5H-benzo[c]isoxazol-4-one]: the figures for the pIC50 in experiment [1] (setting [3]) and in experiment [2] were 4.74 and 6.96, respectively.

In the case of `CC(C)C1CC(=O)c2c(noc2Cc2ccc(C#N)cc2)C1` (single isomer, unassigned) [Cpd 39A, 4-(-6-Isopropyl-4-oxo-4,5,6,7-tetrahydro-benzo[c]isoxazol-3-ylmethyl)-benzonitrile], the pIC50 in experiment [1] (setting [3]) was 5.08; in experiment [2], 6.64.

On to `CC(C)C1CC(=O)c2c(noc2Cc2ccc(C#N)cc2)C1` (single isomer, unassigned) [Cpd 39B, 4-(-6-Isopropyl-4-oxo-4,5,6,7-tetrahydro-benzo[c]isoxazol-3-ylmethyl)-benzonitrile], for which the pIC50 in experiment [1] (setting [3]) is 5.47; in experiment [2], 6.92.

As for `O=C1CC2(CCC2)Cc2noc(Cc3ccccc3)c21` [Cpd 1, 6,6-spiro-cyclobutyl-3-benzyl-6,7-dihydro-5-H-benzo[c]isoxazole-4-one], the pIC50 is 5.96 in experiment [1] (setting [3]) and 8.14 in experiment [2].

Regarding `O=C1CC(CC2CC2)Cc2noc(Cc3ccccc3)c21` (stereo not drawn) [Cpd 2, 3-Benzyl-6-cyclopropylmethyl-6,7-dihydro-5H-benzo[c]isoxazol-4-one], the negative logarithm of the IC50 (pIC50) is 5.30 in experiment [1] (setting [3]) and 7.96 in experiment [2].

As to `CC1(C)CC(=O)c2c(noc2Cc2ccc3c(c2)OCCO3)C1` [Cpd 3, 3-(2,3-Dihydro-benzo[1,4]dioxin-6-ylmethyl)-6,6-dimethyl-6,7-dihydro-5H-benzo[c]isoxazol-4-one], the pIC50 is 6.23 in experiment [1] (setting [3]) and 7.77 in experiment [2].

For the compound `CC(C)C1CC(=O)c2c(noc2CC2CC2)C1` (stereo not drawn) [Cpd 6, 3-Cyclopropylmethyl-6-isopropyl-6,7-dihydro-5H-benzo[c]isoxazol-4-one], the pIC50 in experiment [1] (setting [3]) is 4.68; in experiment [2], 7.57.

`CC(C)C1CC(=O)c2c(noc2CC2CCOCC2)C1` (stereo not drawn) [Cpd 7, 6-Isopropyl-3-(tetrahydro-pyran-4-ylmethyl)-6,7-dihydro-5H-benzo[c]isoxazol-4-one]: the pIC50 in experiment [1] (setting [3]) is 4.70; in experiment [2] it was 7.48.

For `COc1ccc(Cc2onc3c2C(=O)CC(C2CCOCC2)C3)cc1` (stereo not drawn) [Cpd 8, 3-(4-Methoxy-benzyl)-6-(tetrahydro-pyran-4-yl)-6,7-dihydro-5H-benzo[c]isoxazol-4-one], the pIC50 is less than 4.00 in experiment [1] (setting [3]) and 7.11 in experiment [2].

As to `CC1(C)CC(=O)c2c(noc2Cc2ccc(S(C)(=O)=O)cc2)C1` [Cpd 9, 3-(4-Methanesulfonyl-benzyl)-6,6-dimethyl-6,7-dihydro-5H-benzo[c]isoxazol-4-one], the pIC50 in experiment [1] (setting [3]) is 5.43; in experiment [2], 7.08.

In the case of `COc1ccc(Cc2onc3c2C(=O)CC(C)(C)C3)cn1` [Cpd 10, 3-(6-Methoxy-pyridin-3-ylmethyl)-6,6-dimethyl-6,7-dihydro-5H-benzo[c]isoxazol-4-one], the values for the negative-log IC50 (pIC50) in experiment [1] (setting [3]) and in experiment [2] were 5.11 and 6.96, respectively.

On to `CC1(C)CC(=O)c2c(noc2Cc2cccc(C#N)c2)C1` [Cpd 11, 3-(6,6-Dimethyl-4-oxo-4,5,6,7-tetrahydro-benzo[c]isoxazol-3-ylmethyl)-benzonitrile], for which the pIC50 in experiment [1] (setting [3]) is 5.03; in experiment [2], 6.85.

On to `N#Cc1ccc(Cc2onc3c2C(=O)CC(C2CCOCC2)C3)cc1` (stereo not drawn) [Cpd 12, 4-[4-Oxo-6-(tetrahydro-pyran-4-yl)-4,5,6,7-tetrahydro-benzo[c]isoxazol-3-ylmethyl]-benzonitrile], for which the values for the pIC50 in experiment [1] (setting [3]) and in experiment [2] were 4.29 and 6.74, respectively.

In the case of `CC1(C)CC(=O)c2c(noc2Cc2ccc(F)cc2)C1` [Cpd 13, 3-(4-Fluoro-benzyl)-6,6-dimethyl-6,7-dihydro-5H-benzo[c]isoxazol-4-one], the pIC50 in experiment [1] (setting [3]) was 4.66; in experiment [2], 6.72.

As to `CC(C)C1CC(=O)c2c(noc2CC2CCNCC2)C1` (stereo not drawn) [Cpd 14, 4-(6-Isopropyl-4-oxo-4,5,6,7-tetrahydro-benzo[c]isoxazol-3-ylmethyl)-piperidinium hydrochloride], the pIC50 in experiment [1] (read-out: CYP11B1 Inhibition IC50; cynomolgus adrenal gland mitochondria, 11-deoxycortisol as substrate, cortisol measured as product) was less than 4.52; in experiment [2], 5.62.

Regarding `CC(=O)N1CCC(Cc2onc3c2C(=O)CC2(CCC2)C3)CC1` [Cpd 16, 3-(1-Acetyl-piperidin-4-ylmethyl)-6,6-spiro-cyclobutyl-6,7-dihydro-5H-benzo[c]isoxazol-4-one], the values for the negative logarithm of the IC50 (pIC50) in experiment [1] (setting [3]) and in experiment [2] were 5.41 and 7.33, respectively.

As for `CC(=O)N1CCC(Cc2onc3c2C(=O)CC(C)(C)C3)CC1` [Cpd 17, 3-(1-Acetyl-piperidin-4-ylmethyl)-6,6-dimethyl-6,7-dihydro-5H-benzo[c]isoxazol-4-one], the pIC50 in experiment [1] (setting [3]) was 4.62; in experiment [2], 6.16.

For `COCC(=O)N1CCC(Cc2onc3c2C(=O)CC(C(C)C)C3)CC1` (stereo not drawn) [Cpd 18, 6-Isopropyl-3-[1-(2-methoxy-acetyl)-piperidin-4-ylmethyl]-6,7-dihydro-5H-benzo[c]isoxazol-4-one], the pIC50 was 5.55 in experiment [1] (setting [3]) and 7.05 in experiment [2].

Consider `CC(C)C1CC(=O)c2c(noc2CC2CCN(C(=O)CO)CC2)C1` (stereo not drawn) [Cpd 19, 3-[1-(2-Hydroxy-acetyl)-piperidin-4-ylmethyl]-6-isopropyl-6,7-dihydro-5H-benzo[c]isoxazol-4-one], for which the figures for the pIC50 in experiment [1] (setting [3]) and in experiment [2] were 5.00 and 6.70, respectively.

Consider `CC(C)C1CC(=O)c2c(noc2CC2CCN(C(=O)CS(C)(=O)=O)CC2)C1` (stereo not drawn) [Cpd 20, 6-Isopropyl-3-[1-(2-methanesulfonyl-acetyl)-piperidin-4-ylmethyl]-6,7-dihydro-5H-benzo[c]isoxazol-4-one], for which the pIC50 in experiment [1] (setting [3]) was 4.85; in experiment [2], 6.39.

Regarding `CC(C)C1CC(=O)c2c(noc2CC2CCN(C(N)=O)CC2)C1` (stereo not drawn) [Cpd 21, 4-(6-Isopropyl-4-oxo-4,5,6,7-tetrahydro-benzo[c]isoxazol-3-ylmethyl)-piperidine-l-carboxylic acid amide], the results for the pIC50 in experiment [1] (setting [3]) and in experiment [2] were 4.64 and 6.48, respectively.

Consider `NC(=O)N1CCC(Cc2onc3c2C(=O)CC2(CCC2)C3)CC1` [Cpd 22, 4-(6,6-spiro-cyclobutyll-4-oxo-4,5,6,7-tetrahydro-benzo[c]isoxazol-3-ylmethyl)-piperidine-l-carboxylic acid amide], for which the pIC50 in experiment [1] (setting [3]) is 5.46; in experiment [2], 7.24.

Turning to `CC1(C)CC(=O)c2c(noc2Cc2ccc(C#N)cc2)C1` [Cpd 23, 4-(6,6-Dimethyl-4-oxo-4,5,6,7-tetrahydro-benzo[c]isoxazol-3-ylmethyl)-benzonitrile], the values for the pIC50 in experiment [1] (setting [3]) and in experiment [2] were 4.13 and 7.16, respectively.
